Structures are written as SMILES. Values joined by “and” are separate entries in the source; they are usually repeats but may differ in a detail not shown here. Equal entries are not always repeated.

Type in all cases: cell-based
One test concerns the target T1, human ER-α (Homo sapiens, UniProt P03372).
T1 construct: stably transfected with expression vectors for human full-length ER-α or ER-β; expressed in transfected cells
T1 sequence (P03372 1-595): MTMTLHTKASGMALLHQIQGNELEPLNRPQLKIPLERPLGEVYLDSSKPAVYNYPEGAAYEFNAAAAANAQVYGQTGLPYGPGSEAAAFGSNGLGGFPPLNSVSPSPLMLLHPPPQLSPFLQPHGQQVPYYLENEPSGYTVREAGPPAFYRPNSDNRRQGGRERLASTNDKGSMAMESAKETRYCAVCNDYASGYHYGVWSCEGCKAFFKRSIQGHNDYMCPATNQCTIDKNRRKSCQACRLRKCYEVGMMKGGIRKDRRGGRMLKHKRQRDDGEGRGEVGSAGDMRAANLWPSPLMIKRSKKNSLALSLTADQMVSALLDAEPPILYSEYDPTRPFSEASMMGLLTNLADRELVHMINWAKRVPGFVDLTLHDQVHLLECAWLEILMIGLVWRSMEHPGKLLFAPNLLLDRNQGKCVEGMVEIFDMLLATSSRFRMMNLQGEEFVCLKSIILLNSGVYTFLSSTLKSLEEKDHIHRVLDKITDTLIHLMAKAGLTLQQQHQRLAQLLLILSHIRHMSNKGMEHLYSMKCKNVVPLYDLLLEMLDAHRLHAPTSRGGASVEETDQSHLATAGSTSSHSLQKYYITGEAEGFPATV
Briefly: Inhibition of IL-6 release from U-2 OS osteosarcoma cells stably transfected with human ER-α. The following applies: IL-6 production (ELISA) after 2.5 ng/ml TNFα and 1 ng/ml IL-1β stimulation, 24 h; compound 0.01–1000 nM; vehicle = 100%; read-out: IC50 (nM) U2 OS (ER-α). The procedure:
(§1) Illustrative Benzopyranone Compounds were tested for their ability to inhibit IL-6 release from human U-2 OS osteosarcoma cells stably transfected with human ER-α or ER-β. (Stein, B.; Yang, M. X. Mol. Cell. Biol 15: 4971–4979, 1995; Poli, V. et. al., EMBO J. 13:1189–1196, 1994). […] Benzopyranone Compounds having an IC50<100 nM are particularly useful as bone resorption inhibitors in vivo. Accordingly, the Benzopyranone Compounds, are particularly useful for the treatment of osteoporosis, Paget's disease and metastatic bone cancer. These Benzopyranone Compounds are also useful as anti-cancer agents, since elevated IL-6 levels are responsible for certain cancers such as multiple myeloma, prostate cancer, ovarian cancer, renal carcinoma and cervical carcinoma.
(§2) Human U-2 OS osteosarcoma cells (ATCC) were stably transfected with expression vectors for human full-length ER-α or ER-β using standard molecular biology techniques. Stable subclones were generated that expressed high levels of ER-α or ER-β mRNA. The expression of ER-α or ER-β was confirmed using RNase protection analysis.
(§3) Cells were plated into 96-well plates at a density of 80,000 cells per well in phenol red-free media with charcoal-stripped fetal calf serum. Twenty four hours later, cells were either treated with vehicle (0.2% DMSO) or a Benzopyranone Compound (0.01–1000 nm in 0.2% DMSO). Thirty minutes later cells were stimulated with 2.5 ng/ml TNFα and 1 ng/ml IL-1β. Twenty-four hours later the media supernatant was analyzed for cytokine production (IL-6) using commercially available ELISA kits following the manufacturer's instructions. Cytokine production in the presence of vehicle (0.2% DMSO) was set to 100%.
(§4) The results (Table 2) are expressed as an IC50 (nM) value which is the concentration of the Benzopyranone Compound sufficient to inhibit the production of IL-6 50% relative to the amount of IL-6 produced in the presence of vehicle.

A further test concerns the target T2, human ER-β (Homo sapiens, UniProt Q92731).
T2 construct: stably transfected with expression vectors for human full-length ER-α or ER-β; expressed in transfected cells
Nature of the test: Inhibition of IL-6 release from U-2 OS osteosarcoma cells stably transfected with human ER-β. The following applies: IL-6 production (ELISA) after 2.5 ng/ml TNFα and 1 ng/ml IL-1β stimulation, 24 h; compound 0.01–1000 nM; vehicle = 100%; read-out: IC50 (nM) U2 OS (ER-β). The procedure:
as §1, §2, §3, §4
Background: An ELISA detects its analyte on a solid surface through an enzyme-linked reagent.

The test system of test [1] is MCF-7 breast cancer cells. Briefly: Inhibition of 17β-estradiol-dependent MCF-7 breast cancer cell proliferation (3H-thymidine incorporation). The following applies: Homo sapiens, MCF7; with 0.1 nM 17β-estradiol, 72 h, then 3H-thymidine 4 h; compound 0.1–1000 nM. As to the method:
MCF-7 cells represent an excellent in vitro system to study the effects of compounds on estrogen-dependent breast cancer growth. (May, F. E. B.; Westley, B. R. J. Biol. Chem. 262:15894–15899, 1987). Benzopyranone Compounds having an IC50<100 nM are particularly useful as anti-breast cancer agents in vivo.
MCF-7 breast carcinoma cells were plated in 24-well dishes at a density of 5×10^3 cells/well in phenol-red free DMEM:F-12 (1:1) medium containing 1% antibiotics, 0.05% mercaptoethanol, 0.01% ethanolamine, 0.42 ng/mL sodium selenite and 5% charcoal-stripped FCS.
Illustrative Benzopyranone Compounds (0.1–1000 nM in 0.2% DMSO) and 0.1 nM 17β-estradiol were added to the cultured MCF-7 breast cancer cells for 72 h. Subsequently, ^3H-labeled thymidine was added and its incorporation into cells was measured following 4 h incubation. The results (Table 2) are expressed as an IC50 (nM) value which is the concentration of the Benzopyranone Compound sufficient to inhibit the growth of MCF-7 breast cancer cells by 50% relative to controls.

T2 sequence (Q92731 whole entry): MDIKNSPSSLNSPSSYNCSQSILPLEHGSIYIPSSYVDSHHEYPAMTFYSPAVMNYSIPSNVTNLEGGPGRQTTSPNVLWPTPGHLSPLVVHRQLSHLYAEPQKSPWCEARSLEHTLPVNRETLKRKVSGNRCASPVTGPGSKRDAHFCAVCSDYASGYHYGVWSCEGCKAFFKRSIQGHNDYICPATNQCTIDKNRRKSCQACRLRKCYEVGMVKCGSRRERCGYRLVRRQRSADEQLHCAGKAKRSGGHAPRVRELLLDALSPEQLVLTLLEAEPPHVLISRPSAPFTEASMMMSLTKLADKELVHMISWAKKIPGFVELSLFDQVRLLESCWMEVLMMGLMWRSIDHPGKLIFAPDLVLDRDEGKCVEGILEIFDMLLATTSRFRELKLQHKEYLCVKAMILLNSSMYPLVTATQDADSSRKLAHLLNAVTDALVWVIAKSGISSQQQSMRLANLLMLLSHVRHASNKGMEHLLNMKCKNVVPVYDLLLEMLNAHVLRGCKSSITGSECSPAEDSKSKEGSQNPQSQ

By IC50 is commonly meant the concentration that gives 50% inhibition. Take `Cc1c(O)ccc2c(Cc3ccc(OCCN4CCCC4)cc3)c(-c3ccc(Cl)cc3)c(=O)oc12`: the figures for the IC50 (on human ER-α; on human ER-β; in test [1]) were 285 nM, less than 1000 nM and less than 1000 nM, respectively.

Take `O=c1oc2cc(O)c(Br)cc2c(Cc2ccc(OCCN3CCCC3)cc2)c1-c1ccc(C(F)(F)F)cc1`: the IC50 at human ER-α is 310 nM and > 1000 nM; at human ER-β, more than 1000 nM; in test [1] it was more than 1000 nM.

Turning to `Cc1cc2c(Cc3ccc(OCCN4CCCC4)cc3)c(-c3ccc(C(F)(F)F)cc3)c(=O)oc2cc1O`, the figures for the IC50 (at human ER-α; at human ER-β; in test [1]) were 13.3 nM, more than 1000 nM and 59.5 nM, respectively.

`CC(=O)c1c(O)ccc2c(Cc3ccc(OCCN4CCCC4)cc3)c(-c3ccc(Cl)cc3Cl)c(=O)oc12`: the IC50 on human ER-α is 5 nM; on human ER-β, less than 1000 nM; in test [1] it was 112 nM.

With `Cc1c(O)ccc2c(Cc3ccc(OCCN4CCCC4)cc3)c(-c3ccc(Cl)cc3Cl)c(=O)oc12`, the IC50 is 6.9 nM on human ER-α, less than 1000 nM at human ER-β and 35 nM in test [1].

For `N#Cc1c(O)ccc2c(Cc3ccc(OCCN4CCCC4)cc3)c(-c3ccc(C(F)(F)F)cc3)c(=O)oc12`, the IC50 is 390 nM on human ER-α and more than 1000 nM on human ER-β.

As for `CC(=O)c1c(O)ccc2c(Cc3ccc(OCCN4CCCC4)cc3)c(-c3ccc(C(F)(F)F)cc3)c(=O)oc12`, the IC50 on human ER-α was 39 nM; at human ER-β, less than 1000 nM; in test [1], 185 nM.

Consider `CC(=O)c1cc2c(Cc3ccc(OCCN4CCCC4)cc3)c(-c3ccc(C(F)(F)F)cc3)c(=O)oc2cc1O`, for which the IC50 is 850 nM and > 1000 nM on human ER-α; more than 1000 nM at human ER-β; more than 1000 nM in test [1].

As to `Cc1cc2c(Cc3ccc(OCCN4CCCC4)cc3)c(-c3ccc(Cl)cc3Cl)c(=O)oc2cc1O`, the IC50 on human ER-α is 1.7 nM; at human ER-β it was more than 1000 nM; in test [1] it was 10 nM.

With `Cc1c(O)ccc2c(Cc3ccc(OCCN4CCCC4)cc3)c(-c3ccc(C(F)(F)F)cc3)c(=O)oc12`, the IC50 is 55.5 nM on human ER-α, less than 1000 nM at human ER-β and 235 nM in test [1].

In the case of `CC(O)c1cc2c(Cc3ccc(OCCN4CCCC4)cc3)c(-c3ccc(C(F)(F)F)cc3)c(=O)oc2cc1O` (stereo not shown), the IC50 at human ER-α was 850 nM and > 1000 nM; at human ER-β, more than 1000 nM.

The record behind these values is US7247646B2, “Benzopyranone compounds, compositions thereof, and methods of treatment therewith” (Signal Pharmaceuticals, LLC, priority 2003, dated 2007).
